Biological target: T1, human μ-opiate receptor (Homo sapiens, UniProt P35372)
T1 construct: purchased PerkinElmer Life Sciences, Zaventem, Belgium RB-HOM; host or cells: CHO-K1 cells (recombinant expression; membrane preparation)
Assay: Affinity for the human μ-opiate receptor ([3H]-naloxone displacement, SPA)
Settings: Table 1, aldehydes; test substance 1 μmole/l; inhibition of specific [3H]-naloxone binding; CHO-K1 membranes; read-out: μ-Opioid receptor, % inhibition [1 μM]
Description: Investigations on the Efficacy of the Compounds According to the Invention Method for Determining the Affinity for the Human μ-Opiate Receptor
The receptor affinity for the human μ-opiate receptor is determined in a homogeneous batch in microtiter plates. For this purpose dilution series of the substances to be tested are incubated with a receptor membrane preparation (15-40 μg protein/250 μl incubation batch) of CHO-K1 cells, which express the human μ-opiate receptor (RB-HOM receptor membrane preparation from PerkinElmer Life Sciences, Zaventem, Belgium), in the presence of 1 nmole/l of the radioactive ligand [^3H]-naloxone (NET719, PerkinElmer Life Sciences company, Zaventem, Belgium) and 1 mg WGA-SPA beads (wheat germ agglutinin SPA beads from Amersham/Pharmacia, Freiburg, Germany) in a total volume of 250 μl for 90 minutes at room temperature. 50 mmole/l of Tris-HCl supplemented with 0.06% bovine serum albumin is used as incubation buffer. In order to determine the non-specific binding, 100 μmole/l of naloxone is additionally added. After the end of the 90 minutes' incubation time the microtiter plates are centrifuged for 20 minutes at 1000 g and the radioactivity is measured in a beta counter (Microbeta-Trilux, PerkinElmer Wallac, Freiburg, Germany). The percentage displacement of the radioactive ligand from its binding to the human μ-opiate receptor at a concentration of the test substances of 1 μmole/l is determined and is given as percentage inhibition of the specific binding.

T1 sequence (P35372 whole entry): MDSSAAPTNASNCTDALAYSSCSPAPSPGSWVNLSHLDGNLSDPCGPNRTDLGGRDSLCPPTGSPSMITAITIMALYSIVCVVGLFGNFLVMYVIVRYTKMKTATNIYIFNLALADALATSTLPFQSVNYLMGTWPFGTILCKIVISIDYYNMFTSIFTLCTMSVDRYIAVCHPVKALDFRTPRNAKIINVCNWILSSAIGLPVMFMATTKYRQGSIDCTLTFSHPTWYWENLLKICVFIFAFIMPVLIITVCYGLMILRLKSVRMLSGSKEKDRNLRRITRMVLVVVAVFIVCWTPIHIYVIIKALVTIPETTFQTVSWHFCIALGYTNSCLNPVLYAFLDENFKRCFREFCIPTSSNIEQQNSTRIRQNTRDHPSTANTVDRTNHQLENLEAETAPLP

For `CN(C)C(c1ccc(Cl)cc1)C1CCC(CC=O)CC1` (stereo not shown) [Example 10c, {4-[(4-Chlorophenyl)-dimethylaminomethyl]-cyclohexyl}-acetaldehyde], which inhibition at 1 µM is on record?
Its inhibition at 1 µM is 50%.

Same assay, conditions: Table 2, Examples 11-161; test substance 1 μmole/l; inhibition of specific [3H]-naloxone binding; CHO-K1 membranes; read-out: μ-Opioid receptor, % inhibition [1 μM]

For `CCCCN1C=NC(CCC(=O)OC)(C(=O)OC)C1CC1CCC(C(c2ccc(F)cc2)N(C)C)CC1` (stereo not shown) [Example 76, 1-butyl-5-{4-[dimethylamino-(4-fluorophenyl)-methyl]-cyclohexylmethyl}-4-(2-methoxycarbonylethyl)-4,5-dihydro-1H-imidazole-4-carboxylic acid methyl ester], which inhibition at 1 µM is on record?
Its inhibition at 1 µM is 93%.

For `COC(=O)C1(CC(C)C)N=CN(Cc2ccccc2)C1C1CCC(C(c2cccc(F)c2)N(C)C)CC1` (stereo not shown) [Example 46, 1-benzyl-5-{4-[dimethylamino-(3-fluorophenyl)-methyl]-cyclohexyl}-4-isobutyl-4,5-dihydro-1H-imidazole-4-carboxylic acid methyl ester], which inhibition at 1 µM is on record?
Its inhibition at 1 µM is 92%.

Which inhibition at 1 µM does the source give for `CCCCN1C=NC(CSC)(C(=O)OC)C1CC1CCC(C(c2cccc(F)c2)N(C)C)CC1` (stereo not shown) [Example 74, 1-butyl-5-{4-[dimethylamino-(3-fluorophenyl)-methyl]-cyclohexylmethyl}-4-methylsulfanylmethyl-4,5-dihydro-1H-imidazole-4-carboxylic acid methyl ester] here?
Its inhibition at 1 µM is 95%.

How did the inhibition at 1 µM turn out when `CCCCN1C=NC(C(=O)OC)(C(C)CC)C1CC1CCC(C(c2cccc(F)c2)N(C)C)CC1` (stereo not shown) [Example 73, 1-butyl-4-sec-butyl-5-{4-[dimethylamino-(3-fluorophenyl)-methyl]-cyclohexylmethyl}-4,5-dihydro-1H-imidazole-4-carboxylic acid methyl ester] was run?
Its inhibition at 1 µM is 92%.

With `COC(=O)C1(Cc2ccc(Cl)cc2)N=CN(C2CCCCC2)C1C1CCC(C(c2ccc(Cl)cc2)N(C)C)CC1` (stereo not shown) [Example 15, 4-(4-chlorobenzyl)-5-{4-[(4-chlorophenyl)-dimethylaminomethyl]-cyclohexyl}-1-cyclohexyl-4,5-dihydro-1H-imidazole-4-carboxylic acid methyl ester] as the molecule, how does the inhibition at 1 µM read?
Its inhibition at 1 µM is 76%.

How did the inhibition at 1 µM turn out when `CCCCN1C=NC(CC(C)C)(C(=O)OC)C1C1CCC(C(c2ccc(Cl)cc2)N(C)C)CC1` (stereo not shown) [Example 31, 1-butyl-5-{4-[(4-chlorophenyl)-dimethylaminomethyl]-cyclohexyl}-4-isobutyl-4,5-dihydro-1H-imidazole-4-carboxylic acid methyl ester] was run?
The inhibition at 1 µM was 91%.

`COC(=O)C1(CSCc2ccccc2)N=CN(CCc2ccccc2)C1C1CCC(C(c2ccc(Cl)cc2)N(C)C)CC1` (stereo not shown) [Example 93, 4-benzylsulfanylmethyl-5-{4-[(4-chlorophenyl)-dimethylaminomethyl]-cyclohexyl}-1-phenethyl-4,5-dihydro-1H-imidazole-4-carboxylic acid methyl ester] was tested. Which inhibition at 1 µM did it give?
Its inhibition at 1 µM is 92%.

How did the inhibition at 1 µM turn out when `CCCC1(C(=O)OC)N=CN(CCc2ccccc2)C1CC1CCC(C(c2cccc(F)c2)N(C)C)CC1` (stereo not shown) [Example 129, 5-{4-[dimethylamino-(3-fluorophenyl)-methyl]-cyclohexylmethyl}-1-phenethyl-4-propyl-4,5-dihydro-1H-imidazole-4-carboxylic acid methyl ester] was run?
Its inhibition at 1 µM is 93%.

`COC(=O)CCC1(C(=O)OC)N=CN(C2CCCCC2)C1CC1CCC(C(CCc2ccccc2)N(C)C)CC1` (stereo not shown) [Example 154, 1-cyclohexyl-5-[4-(1-dimethylamino-3-phenylpropyl)-cyclohexylmethyl]-4-(2-methoxycarbonylethyl)-4,5-dihydro-1H-imidazole-4-carboxylic acid methyl ester] was tested. Which inhibition at 1 µM did it give?
The inhibition at 1 µM was 82%.

`CCCCC1(C(=O)OC)N=CN(CCC)C1C1CCC(C(c2cccc(F)c2)N(C)C)CC1` (stereo not shown) [Example 23, 4-butyl-5-{4-[dimethylamino-(3-fluorophenyl)-methyl]-cyclohexyl}-1-propyl-4,5-dihydro-1H-imidazole-4-carboxylic acid methyl ester] was tested. Which inhibition at 1 µM did it give?
Its inhibition at 1 µM is 76%.

How did the inhibition at 1 µM turn out when `COC(=O)C1(CSCc2ccccc2)N=CN(C2CCCCC2)C1C1CCC(C(c2cccc(F)c2)N(C)C)CC1` (stereo not shown) [Example 116, 4-benzylsulfanylmethyl-1-cyclohexyl-5-{4-[dimethylamino-(3-fluorophenyl)-methyl]-cyclohexyl}-4,5-dihydro-1H-imidazole-4-carboxylic acid methyl ester] was run?
Its inhibition at 1 µM is 101%.

With `COC(=O)C1(CCSC)N=CN(CCc2ccccc2)C1CC1CCC(C(c2cccc(F)c2)N(C)C)CC1` (stereo not shown) [Example 130, 5-{4-[dimethylamino-(3-fluorophenyl)-methyl]-cyclohexylmethyl}-4-(2-methylsulfanylethyl)-1-phenethyl-4,5-dihydro-1H-imidazole-4-carboxylic acid methyl ester] as the molecule, how does the inhibition at 1 µM read?
The inhibition at 1 µM was 97%.

How did the inhibition at 1 µM turn out when `CCCCN1C=NC(CC(C)C)(C(=O)OC)C1C1CCC(C(c2cccc(F)c2)N(C)C)CC1` (stereo not shown) [Example 29, 1-butyl-5-{4-[dimethylamino-(3-fluorophenyl)-methyl]-cyclohexyl}-4-isobutyl-4,5-dihydro-1H-imidazole-4-carboxylic acid methyl ester] was run?
Its inhibition at 1 µM is 89%.

With `CCCCC1(C(=O)OC)N=CN(CCC)C1CC1CCC(C(c2ccc(Cl)cc2)N(C)C)CC1` (stereo not shown) [Example 28, 4-butyl-5-{4-[(4-chlorophenyl)-dimethylaminomethyl]-cyclohexylmethyl}-1-propyl-4,5-dihydro-1H-imidazole-4-carboxylic acid methyl ester] as the molecule, how does the inhibition at 1 µM read?
Its inhibition at 1 µM is 97%.

For `COC(=O)C1(CCSC)N=CN(C2CCCCC2)C1CC1CCC(C(CCc2ccccc2)N(C)C)CC1` (stereo not shown) [Example 109, 1-cyclohexyl-5-[4-(1-dimethylamino-3-phenylpropyl)-cyclohexylmethyl]-4-(2-methylsulfanyl-ethyl)-4,5-dihydro-1H-imidazole-4-carboxylic acid methyl ester], which inhibition at 1 µM is on record?
The inhibition at 1 µM was 87%.

`COC(=O)C1(CSCc2ccccc2)N=CN(C2CCCCC2)C1CC1CCC(C(CCc2ccccc2)N(C)C)CC1` (stereo not shown) [Example 156, 4-benzylsulfanylmethyl-1-cyclohexyl-5-[4-(1-dimethylamino-3-phenylpropyl)-cyclohexylmethyl]-4,5-dihydro-1H-imidazole-4-carboxylic acid methyl ester] was tested. Which inhibition at 1 µM did it give?
Its inhibition at 1 µM is 92%.

For `COC(=O)CCC1(C(=O)OC)N=CN(CCc2ccccc2)C1CC1CCC(C(c2cccc(F)c2)N(C)C)CC1` (stereo not shown) [Example 80, 5-{4-[dimethylamino-(3-fluorophenyl)-methyl]-cyclohexylmethyl}-4-(2-methoxycarbonylethyl)-1-phenethyl-4,5-dihydro-1H-imidazole-4-carboxylic acid methyl ester], which inhibition at 1 µM is on record?
The inhibition at 1 µM was 90%.

Which inhibition at 1 µM does the source give for `CCCCN1C=NC(CSCc2ccccc2)(C(=O)OC)C1CC1CCC(C(c2ccc(Cl)cc2)N(C)C)CC1` (stereo not shown) [Example 90, 4-benzylsulfanylmethyl-1-butyl-5-{4-[(4-chlorophenyl)-dimethylaminomethyl]-cyclohexylmethyl}-4,5-dihydro-1H-imidazole-4-carboxylic acid methyl ester] here?
The inhibition at 1 µM was 99%.

How did the inhibition at 1 µM turn out when `COC(=O)C1(CCSC)N=CN(C2CCCCC2)C1CC1CCC(C(c2ccc(F)cc2)N(C)C)CC1` (stereo not shown) [Example 106, 1-cyclohexyl-5-{4-[dimethylamino-(4-fluorophenyl)-methyl]-cyclohexylmethyl}-4-(2-methylsulfanyl-ethyl)-4,5-dihydro-1H-imidazole-4-carboxylic acid methyl ester] was run?
The inhibition at 1 µM was 92%.

For `COC(=O)C1(CSCc2ccccc2)N=CN(C2CCCCC2)C1CC1CCC(C(c2cccc(F)c2)N(C)C)CC1` (stereo not shown) [Example 150, 4-benzylsulfanylmethyl-1-cyclohexyl-5-{4-[dimethylamino-(3-fluorophenyl)-methyl]-cyclohexylmethyl}-4,5-dihydro-1H-imidazole-4-carboxylic acid methyl ester], which inhibition at 1 µM is on record?
The inhibition at 1 µM was 98%.

Which inhibition at 1 µM does the source give for `CCCN1C=NC(CSCc2ccccc2)(C(=O)OC)C1CC1CCC(C(c2ccc(F)cc2)N(C)C)CC1` (stereo not shown) [Example 161, 4-benzylsulfanylmethyl-5-{4-[dimethylamino-(4-fluorophenyl)-methyl]-cyclohexylmethyl}-1-propyl-4,5-dihydro-1H-imidazole-4-carboxylic acid methyl ester] here?
The inhibition at 1 µM was 91%.

How did the inhibition at 1 µM turn out when `COC(=O)C1(CC(C)C)N=CN(Cc2ccccc2)C1C1CCC(C(c2ccc(Cl)cc2)N(C)C)CC1` (stereo not shown) [Example 48, 1-benzyl-5-{4-[(4-chlorophenyl)-dimethylaminomethyl]-cyclohexyl}-4-isobutyl-4,5-dihydro-1H-imidazole-4-carboxylic acid methyl ester] was run?
The inhibition at 1 µM was 93%.

`CCCN1C=NC(CCSC)(C(=O)OC)C1CC1CCC(C(c2ccc(F)cc2)N(C)C)CC1` (stereo not shown) [Example 119, 5-{4-[dimethylamino-(4-fluorophenyl)-methyl]-cyclohexylmethyl}-4-(2-methylsulfanylethyl)-1-propyl-4,5-dihydro-1H-imidazole-4-carboxylic acid methyl ester] was tested. Which inhibition at 1 µM did it give?
Its inhibition at 1 µM is 90%.

With `CCCCN1C=NC(CSCc2ccccc2)(C(=O)OC)C1CC1CCC(C(c2cccc(F)c2)N(C)C)CC1` (stereo not shown) [Example 75, 4-benzylsulfanylmethyl-1-butyl-5-{4-[dimethylamino-(3-fluorophenyl)-methyl]-cyclohexylmethyl}-4,5-dihydro-1H-imidazole-4-carboxylic acid methyl ester] as the molecule, how does the inhibition at 1 µM read?
Its inhibition at 1 µM is 98%.

— patent US7728028B2, “Substituted imidazoline compounds” (Gruenenthal GmbH, priority 2005, dated 2010)
